The values below come from PubChem BioAssay AID602236 (The Scripps Research Institute Molecular Screening Center, 2012).

The term IC50 denotes the concentration needed to halve the response being measured.

Calls of active or inactive are those of the source.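 Rule for the calls: active = IC50 of 10 µM or lower; inactive = IC50 above 10 µM.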

This test concerns HEK-293 Gal4-VP16 UAS luciferase reporter, luminescence. The experiment in a line: VP16 transactivation inhibitor potency, dose response, counter-screen for SRC1 inhibitor project, cell-based, luminescence, high throughput, SRC1 series (AID 602236). In general terms: A counterscreen serves to expose hits that act by an unwanted route or on another target.

Consider `COc1cc(/C=C2\SC(N)=NC2=O)cc(OC)c1`, for which the IC50 was 8.33 µM.
Turning to `O=C(O)c1ccccc1C(=O)Nc1ccc(Oc2cccc3ccccc23)cc1`, the IC50 was > 35.9 µM (inactive).
The value for `CCCCCOc1ccc(/C=C/c2c([N+](=O)[O-])c(=O)n(C)c(=O)n2C)cc1` was 10.1 µM (inactive); that for `O=C(O)CN1C(=O)/C(=C\c2ccccc2OCc2ccc(Cl)cc2Cl)SC1=S` was > 35.9 µM (inactive); that for `CCc1c(C)nc2c(C)cccc2c1SCCC#N` was > 35.9 µM (inactive).
`C=CCNc1ncnc2ccc(Br)cc12`: the IC50 was 5.96 µM.
The value for `CC(C)(C)OC(=O)NCC(=O)Oc1cc2oc(=O)cc(-c3ccccc3)c2cc1Cl` was 21.8 µM (inactive).
As to `COC(=O)c1cccc2c1-c1ccccc1/C2=N/O`, the IC50 is 4.87 µM.
For `CNc1ncnc(Sc2nc(N)nc3nc[nH]c23)c1[N+](=O)[O-]`, the IC50 is 5.79 µM.
The value for `Nc1nc(CCl)nc(Nc2cccc3ccccc23)n1` was 11.1 µM (inactive); that for `c1cc2[nH]snc2c2nc(C3CC3)nc12` was 3.5 µM; that for `COc1cccc(/C=N/NC(=O)CNC(=O)C2COc3ccccc3O2)c1O` (stereo unspecified) was 11.1 µM (inactive).
The figure for `Nc1ccc(-c2cc3ccccc3oc2=O)cc1` is > 35.8 µM (inactive); for `c1cnc2ccc(-n3ccnc3)cc2c1` it is 9.58 µM.
The value for `Cc1ccc(S(=O)(=O)NC(CC(C)C)C(=O)NCC(c2ccco2)N2CCCCC2)cc1` (stereo unspecified) was > 35.9 µM (inactive); that for `C=CCc1ccccc1OCC(=O)N/N=C/c1ccc(OC(C)=O)cc1OC(C)=O` was 22.8 µM (inactive).
As for `Cc1nc2ccccn2c1-c1ccnc(=S)[nH]1`, the IC50 was > 35.8 µM (inactive).
The figure for `NC(=O)c1cc(Sc2ccccc2)nc2ccccc12` is 11.6 µM (inactive).
The figure for `CCn1c(Oc2cccc(Br)c2)nc2c1c(=O)n(C)c(=O)n2C` is 25.8 µM (inactive); for `c1ccc(-c2nnc(-c3ccccn3)nc2NC2CCCCC2)cc1` it is > 35.9 µM (inactive).
Take `CCOc1cc(C(N)=O)cc(Br)c1OC`: the IC50 is 17.1 µM (inactive).
The value for `CCOC(=O)CSc1cc(-c2ccccc2)nc2ncnn12` was > 35.9 µM (inactive); that for `Cc1c2ccncc2cc2c1[nH]c1ccccc12` was 6.48 µM; that for `Oc1ccc(C=NNc2ccccn2)c(O)c1` was > 35.9 µM (inactive).
Regarding `O=C(OC(c1ccccc1)c1nccc2ccccc12)c1ccccc1` (stereo unspecified), the IC50 was 23.9 µM (inactive).
The value for `CC1CCCCN1c1ncnc2ccccc12` (stereo unspecified) was 13.4 µM (inactive); that for `CC(=O)NC(c1cc(Cl)c2cccnc2c1O)C(C)C` (stereo unspecified) was 8.06 µM.
On to `Cc1ccc(O)c(Nc2ncnc3ccc([N+](=O)[O-])cc23)c1`, for which the IC50 was 10.8 µM (inactive).
The value for `Fc1ccc(CSc2nnc(-c3ccncc3)o2)cc1` was 7.85 µM; that for `O=C1CCC/C1=c1\s/c(=C/c2cccnc2)c(=O)n1-c1ccccc1` was 11.2 µM (inactive); that for `O=C(Nc1cccnc1)c1ccc(C(=O)Nc2cccnc2)cc1` was > 35.9 µM (inactive).
With `COc1ccc(CNc2ncc(-c3ccc(F)cc3)n2C)c2ccccc12`, the IC50 is > 35.9 µM (inactive).
Take `OCCN(CCO)CC(O)COc1ccc(C23CC4CC(CC(C4)C2)C3)cc1` (stereo unspecified): the IC50 was > 35.9 µM (inactive).
The value for `COc1cccc(/C=N/NC(=O)C(=O)Nc2ccccc2OC(F)(F)C(F)F)c1O` was 10.7 µM (inactive).
The value for `COc1ccc(-n2cnc(N)c2C(=O)c2cccc([N+](=O)[O-])c2)cc1` was 15.7 µM (inactive).
The value for `Cc1sc2ncnc(N3CCC(C(=O)N(C)CC(=O)Nc4cccc(F)c4)CC3)c2c1C` was 15 µM (inactive); that for `CCC(C)(C)n1nnnc1CN1CCC(n2c(C)nc3cc(C(F)(F)F)ccc32)CC1` was > 35.9 µM (inactive); that for `CC1(C)Cc2c(ccc3ccccc23)C(=O)N1` was 8.4 µM.
For the compound `CCOC(=O)c1cccc2c1-c1ccccc1/C2=N/O`, the IC50 was 8.12 µM.
`CCCCN(CCCC)c1ncnc2nc[nH]c12`: the IC50 is 6.97 µM.
The figure for `c1cc2c(cn1)cnc1cscc12` is 11.8 µM (inactive); for `CCCS(=O)(=O)Nc1ccc(Nc2c3ccccc3nc3ccccc23)c(OC)c1` it is > 35.9 µM (inactive); for `O=C(NC(=S)Nc1ccc(N2CCN(C(=O)c3ccccc3)CC2)cc1)c1cccs1` it is 10.5 µM (inactive).
As for `CCN(CC)CCNC(=O)c1ccc(NC(=O)C2CCN(c3ncnc4sc(C)c(C)c34)CC2)cc1`, the IC50 is 5.54 µM.
Regarding `COc1ccc(-c2cc(=O)oc3c(C)c(O)c(CN(C)C)cc23)cc1`, the IC50 was 15 µM (inactive).
`Cc1ccc(N=c2c([N+](=O)[O-])nn(-c3ccc4c(c3)OCCO4)n2O)cc1F`: the IC50 is 27 µM (inactive).
The figure for `Cc1ccc(S(=O)(=O)Nc2c(NC3CCCCC3)c3ccccc3oc2=O)c(C)c1` is 12.8 µM (inactive); for `O=C(N/N=C(\c1ccccc1)c1ccccn1)c1ccccc1Cl` it is 10.8 µM (inactive).
For the compound `CCCCC(=O)OCC(=O)C1(O)Cc2c(O)c3c(c(O)c2C(OC2CC(NC(=O)C(F)(F)F)C(O)C(C)O2)C1)C(=O)c1c(OC)cccc1C3=O` (stereo unspecified), the half-maximal inhibitory concentration (IC50) is 6.82 µM.
Turning to `O=c1ccc2c(ccc3ncccc32)o1`, the IC50 was 18.1 µM (inactive).
As for `CCOc1ccc(/C=C2\SC(=S)N(CCC(=O)O)C2=O)cc1`, the IC50 is > 35.9 µM (inactive).
The figure for `Cc1ccc(O)c(C(=O)c2cnn(C(=O)COc3ccc(Cl)cc3)c2)c1` is 27.6 µM (inactive); for `COc1ccccc1/C=C\C(=O)NCC(=O)N/N=C/c1cccc(OC)c1O` it is 15.5 µM (inactive).
Turning to `O=C(N/N=C/c1coc2ccc(Cl)cc2c1=O)c1ccc(O)cc1`, the IC50 is > 35.9 µM (inactive).
For the compound `O=[N+]([O-])c1ccc2c(c1)-c1ccccc1C2=NO`, the IC50 was > 35.9 µM (inactive).
For `CCCCC(=O)Nc1cccn2ncnc12`, the IC50 was > 35.9 µM (inactive).
In the case of `CCOC(=O)c1c(NC(=O)C(C)N2CCN(C(=O)c3ccco3)CC2)sc2c1CCCC2` (stereo unspecified), the IC50 was 11.4 µM (inactive).
The figure for `Cc1ccc(N(Cc2cc(=O)[nH]c3ccccc23)C(=O)CCl)c(C)c1` is 6.66 µM; for `Cc1ccc(/C=C2\SC(=S)N(CCCC(=O)NC3CCCC3)C2=O)cc1` it is 5.37 µM; for `CN(C)C=Nc1c(C(=O)c2ccccc2)sc2nccc(N(C)C)c12` it is > 35.9 µM (inactive).
For `COc1ccccc1N(C(=O)CCl)c1cn(C(C)=O)c2ccccc12`, the 50% inhibitory concentration (IC50) is 9.22 µM.
The value for `O=C(CCC1CCCC1)Nc1ccc(C(=O)NCc2cccnc2)cc1` was 7.75 µM; that for `Cc1ccc(OCC(=O)c2cc(C)n(-c3ccccc3)c2C)c([N+](=O)[O-])n1` was 12.2 µM (inactive); that for `CCc1nc(N)nc(N)c1-c1ccc(Cl)c([N+](=O)[O-])c1` was > 35.8 µM (inactive).
The value for `COc1cc2c(cc1OC)C(C)N(C(=O)c1cccc([N+](=O)[O-])c1)CC2` (stereo unspecified) was 8.73 µM.
The value for `Cn1nc(C(F)(F)F)c(C#N)c1N1CCN(c2ccc(F)cc2)CC1` was 7.86 µM; that for `Cc1ccc(S(=O)(=O)N2[C@@H](c3ccc(C(C)(C)C)cc3)C(C(=O)O)=CC[C@H]2c2ccc(Cl)cc2)cc1` was 16 µM (inactive).
With `O=C(Nc1nc(-c2ccccn2)cs1)c1cccc(S(=O)(=O)N2CCOCC2)c1`, the half-maximal inhibitory concentration (IC50) was 8.59 µM.
On to `O=C(NC1CCCCC1)C(c1cccnc1)N(C(=O)CCl)c1cccc(Cl)c1` (stereo unspecified), for which the IC50 is 4.71 µM.
The figure for `Cc1nc2sc(C(N)=O)c(N)c2c(C)c1CC(=O)c1ccccc1` is > 35.9 µM (inactive); for `CC(C)(C)c1cc(C(=O)N/N=C/c2ccc(O)cc2)n(-c2ccccc2)n1` it is 21.9 µM (inactive).
The value for `Cc1ccc(C(=O)Nc2sc(C)c(-c3ccccc3)c2C(N)=O)cc1[N+](=O)[O-]` was > 35.9 µM (inactive); that for `S=C(c1ccc(-c2ccccc2)cc1)N1CCOCC1` was 24 µM (inactive); that for `CS(=O)(=O)Nc1cccc(NC(=O)C2Cc3c(-c4ccco4)ccnc3O2)c1` (stereo unspecified) was 19.3 µM (inactive).
The figure for `Cc1noc(/C=C/c2ccco2)c1S(=O)(=O)N1CCC(C(=O)Nc2ccc(Cl)cn2)CC1` is 16.1 µM (inactive).
Take `O=C(Nc1c(-c2ccccc2)[nH][nH]c1=O)c1cccc(C(F)(F)F)c1`: the IC50 was > 35.8 µM (inactive).
On to `Cc1cc(/C=C2\Cc3ccccc3C2=O)c(C)n1-c1ccccc1`, for which the IC50 is > 35.9 µM (inactive).
The figure for `CCC(=O)Oc1c(C(=O)CC)cc2c(C)cc(=O)oc2c1C` is 18.9 µM (inactive); for `O=[N+]([O-])c1ccc(N(CCO)CCO)c2c1no[n+]2[O-]` it is 7.87 µM; for `COc1ccc(-n2cnc3c(sc4nccc(N(C)C)c43)c2=O)cc1` it is 14.2 µM (inactive).
The value for `CCOc1cccc(/C=N/NC(=O)c2cc(C3CC3)[nH]n2)c1O` was 11.2 µM (inactive); that for `CC1CCN(C(=O)c2scc3c2OCCO3)CC1` was 16.4 µM (inactive).
The value for `O=C(COC(=O)c1ccc[nH]c1=O)Nc1ccc(N2CCCCC2)cc1` was > 35.9 µM (inactive); that for `COC(=O)N(NC(=O)C(O)(CCC(C)C)CCC(C)C)c1ccccc1` was > 35.9 µM (inactive); that for `CCN(CC(=O)Nc1ccc(NC(C)=O)cc1)C(=O)C1(c2ccc(Cl)cc2)CCC1` was > 35.9 µM (inactive).
Turning to `CC(C)n1c(-c2cccnc2)nc2cnccc21`, the 50% inhibitory concentration (IC50) was 9.47 µM.
The figure for `COc1ccc2c(c1)-c1c(ssc1=S)C(C)(C)N2C(=O)CSC1=NCCS1` is 20.6 µM (inactive); for `CCOC(=O)CC(=O)CSc1nccc(-c2cccnc2)n1` it is > 35.9 µM (inactive).
Consider `COc1ccccc1-c1cc2nc(-c3ccccc3)cc(N3CCN(C(=O)c4ccco4)CC3)n2n1`, for which the IC50 is 4.1 µM.
Turning to `COc1ccc2c(C#N)c3ccccn3c2c1`, the IC50 is > 35.8 µM (inactive).
The value for `O=C(c1ccncc1)N(Cc1cc2ccccc2[nH]c1=O)C1CCCCC1` was 7.87 µM.
